US20170165286A1, “COMPOSITIONS AND METHODS FOR TREATING DIABETES AND LIVER DISEASES” (Cempra Pharmaceuticals, Inc., priority 2014, published 2017)
Entries after “also recorded” stand apart in the source; their conditions may differ.

Assays:
[1] = tested on: BLM-induced pulmonary fibrosis model mice; experiment: Bleomycin-induced lung injury: BALF analysis, body weight; assay type: in vivo; conditions: for BALF Eosinophil / BALF Lymphocytes / BALF Macrophages / BALF Neutrophil / BALF Total cells: oral q.d. day −2 to 6
Protocol: Bleomycin-Induced Lung Injury. Lung inflammation is induced in female mice by a single intratracheal administration of bleomycin. Twenty mice are divided into two groups. […] It is to be understood herein that 100 mg/kg in mice is generally considered to be equivalent to a 450-500 mg, such as 480 mg, dose in humans. Animals are sacrificed on Day 7.
Pathogen-free 7 weeks old female C57BL/6J mice are obtained from CLEA Japan (Tokyo, Japan) and allowed to acclimate at least 6 days. On day 0, twenty mice are induced to develop pulmonary fibrosis by a single intratracheal administration of bleomycin sulphate (BLM, Nippon Kayaku, Japan) in 0.9% saline in a volume of 50 μL per animal using a Microsprayer® (Penn-Century, USA). Individual body weight is measured daily during the experiment period. Survival, clinical signs and behavior of mice is monitored daily.
Solithromycin Reduces Inflammation In Mice Caused By Bleomycin-Induced Lung Injury. Pulmonary fibrosis is a problem in the management of patients who have received chemotherapy for malignancies particularly with regimens that contain bleomycin (BLM), methotrexate, cyclophosphamide, and many new agents. These patients are susceptible to pulmonary infections as well as to inflammation from pulmonary injury. […] The effects of solithromycin on the ability to prevent lung inflammation and fibrosis is described in a bleomycin induced-lung inflammation and fibrosis model. Group 1 (BLM-Vehicle): Ten BLM-induced pulmonary fibrosis model mice are orally administered vehicle (Carboxymethyl cellulose) at a volume of 10 mL/kg once daily from day −2 (two days before BLM administration) to day 6. […]
BALF samples were collected by flushing the lung via the trachea with sterile PBS three times (0.8 mL each). The first lavage was kept separate from the other two. BALF was centrifuged at 1,000×g for 3 minutes at 4° C. and the supernatant was collected and stored at −80° C. until use. The cell pellet from the first fraction and the remaining fractions of lavage fluid were pooled. Total cell number of BALF was counted with a hemocytometer and the cell differentials were determined by cytospin preparation stained with Diff-Quick (Sysmex, Japan). A differential cell count was performed on up to about 200 cells.
MMP-9 in the BALF was quantified by the Mouse Total MMP-9 Quantikine ELISA Kit (R&D Systems, USA).
Analyses of BALF (bronchoalveolar lavage fluid). The cells in BALF are counted with a hemocytometer, and cell differentials are determined in cytospin preparations stained with Diff-Quik (Sysmex, Japan) MMP-9 in the supernatants from BALF are quantified by an enzyme-linked immunosorbent assay (ELISA; Cat# MMPT90, R&D Systems, USA). Histopathological assays for lung sections are performed according to standard methods. Masson's Trichrome staining and estimation of Ashcroft Score includes HE staining. Gene expression assays using total RNA from the lung are obtained using real-time RT-PCR analyses performed for TNF-α, MCP-1 and MMP-9.

STAM mice = experiment: STAM model: liver immunohistochemistry (F4/80, Gr-1, CK-18); assay type: in vivo; conditions: for F4/80-positive area (%) a measure of macrophage density: STAM mice liver
Protocol: NASH-HCC (STAM™) Model. C57BL/6 (15-day-pregnant female) mice are obtained from Charles River Laboratories Japan (Kanagawa, Japan). Male pups are selected for the study. NASH is induced in male mice by a single subcutaneous injection of 200 μg streptozotocin (STZ, Sigma-Aldrich, USA) solution 2 days after birth, followed by feeding a HFD (57 kcal % fat, cat#: HFD32, CLEA Japan, Japan) beginning at 4 weeks of age. At 5 weeks of age, mice are divided into a control group and one or more treated group (generally 8 mice per group). Animals are sacrificed at 9 weeks of age, and biochemical, histological, and gene expression analyses are performed.
During weeks 5-9 (starting at day 35±2), test compound is administered (generally orally) at various doses diluted to 10 mL/kg and according to various dosing protocols to treatment groups (8 mice each) while a second group (8 mice) is administered vehicle only. Animals are sacrificed at 9 weeks.
For immunohistochemistry (a measure of inflammation), sections are cut from frozen liver tissues embedded in Tissue-Tek O.C.T. compound and fixed in acetone. Endogenous peroxidase activity is blocked using 0.03% H2O2 for 5 minutes, followed by incubation with Block Ace (Dainippon Sumitomo Pharma, Japan) for 10 minutes. The sections were incubated with a 200-fold dilution of anti-F4/80 antibody (BMA Biomedicals, Switzerland), a 50-fold dilution of anti-CK-18 antibody (LifeSpan BioSciences, USA) or anti-Gr-1 antibody (culture supernatant) over night at 4° C. F4/80 is a marker for macrophage and Kupffer cells in the liver; CK-18 antibody measures the cytoskeleton in damaged hepatocytes; and anti-Gr-1 antibody measures the neutrophil response. After incubation with secondary antibody (HRP-Goat anti-rat antibody, Invitrogen, USA), enzyme-substrate reactions are performed using 3, 3′-diaminobenzidine/H2O2 solution (Nichirei, Japan).
For quantitative analysis of fibrosis area, bright field images of Sirius red-stained sections are captured around the central vein using a digital camera (DFC280; Leica, Germany) at 200-fold magnification, and the positive areas in 5 fields/section are measured using ImageJ software (National Institute of Health, USA). For quantitative analysis of inflammation area, bright field images of F4/80-immunostained sections are captured around the central vein using a digital camera (DFC280; Leica, Germany) at 200-fold magnification, and the positive areas in 5 fields/section are measured using ImageJ software (National Institute of Health, USA).
Illustrative dose response test groups. Group 1-Normal. Eight normal mice are fed with a normal diet ad libitum without any treatment until 9 weeks of age. Group 2-Vehicle. Eight NASH mice are orally administered vehicle (0.5% w/v methylcellulose+0.2% Tween®80) in a volume of 10 mL/kg twice daily from 5 to 9 week of age. Group 3-solithromycin 5 mg/kg. Eight NASH mice are orally administered vehicle supplemented with solithromycin at a dose of 5 mg/kg in the morning and the vehicle in the evening (5 mg/kg/day) from 5 to 9 weeks of age. Group 4-solithromycin 10 mg/kg. Eight NASH mice are orally administered vehicle supplemented with solithromycin at a dose of 10 mg/kg twice daily (20 mg/kg/day) from 5 to 9 weeks of age. Group 5-solithromycin 25 mg/kg. Eight NASH mice are orally administered vehicle supplemented with solithromycin at a dose of 25 mg/kg twice daily (50 mg/kg/day) from 5 to 9 weeks of age. Group 6-solithromycin 50 mg/kg. Eight NASH mice are orally administered vehicle supplemented with solithromycin at a dose of 50 mg/kg once daily (50 mg/kg/day) from 5 to 9 weeks of age.

[2] = bleomycin mice, heading says 50 mg/kg q.d.
[3] = bleomycin mice, heading says 50 mg/kg q.d., listed as SOLI

## CC[C@H]1OC(=O)[C@@](C)(F)C(=O)[C@H](C)[C@@H](O[C@@H]2O[C@H](C)C[C@H](N(C)C)[C@H]2O)[C@](C)(OC)C[C@@H](C)C(=O)[C@H](C)[C@H]2N(CCCCn3cc(-c4cccc(N)c4)nn3)C(=O)O[C@]12C [solithromycin]
[1]; bleomycin mice BALF (ELISA), heading says 50 mg/kg q.d.
  MMP-9 expression: decreasing trend
[1]; bleomycin mice, any day and day of sacrifice
  Body weight changes compared to vehicle group: no significant differences
[1]; [2]
  BALF Eosinophil: significantly decreased
  BALF Lymphocytes: significantly decreased
  BALF Macrophages: no significant difference
  BALF Neutrophil: significantly decreased
  BALF Total cells: significantly decreased
[1]; [3]
  BALF Eosinophil: 0.3 ± 0.2 × 10^4
  BALF Lymphocytes: 3.9 ± 1.9 × 10^4
  BALF Macrophages: 16.9 ± 9.6 × 10^4
  BALF Neutrophil: 0.7 ± 0.4 × 10^4
  BALF Total cells: 2.2 ± 1.2 × 10^5
STAM mice; 5 mg/kg
  F4/80-positive area (%) a measure of macrophage density: 10.83 ± 1.38%
STAM mice; 10 mg/kg
  F4/80-positive area (%) a measure of macrophage density: 9.33 ± 1.31%
STAM mice; 25 mg/kg
  F4/80-positive area (%) a measure of macrophage density: 10.63 ± 2.11%
STAM mice; STAM mice, Groups 3-6
  Area of F4/80-positive macrophages compared to vehicle group: no significant differences
STAM mice; STAM mice, all doses
  Gr-1 positive cells (neutrophil infiltration) in liver compared to vehicle group: decreased; also recorded: reduced
STAM mice; STAM mice, any doses
  CK-18 immunostaining compared to vehicle group: no obvious changes
